Measured values taken from the OPERA property sets (Mansouri et al. 2018).
Where a SMILES comes first, the peptide text is derived from it.

Compound	logP
C#CC1(OC(=O)C2=CN(C)C=CC2)CCC2C3CCC4=CC(=O)CCC4(C)C3CCC21C (stereo not drawn)	4.49
Clc1ccc(Cl)c(-c2cccc(Cl)c2Cl)c1	5.81
ClC(Cl)(Cl)c1nc(C(Cl)(Cl)Cl)nc(C(Cl)(Cl)Cl)n1	3.75
O=C(NCCCO)C(F)(F)Cn1ccnc1[N+](=O)[O-]	-0.64
Cc1cc(=O)oc2cc(OC3OC(CO)C(O)C(O)C3O)ccc12 (stereo not drawn)	-0.66
CNC(=O)OCc1c2c(n3c1C(OC(C)=O)CC3)C(=O)C(C)=C(OC)C2=O (stereo not drawn)	2.39
OCCOc1ccccc1Cl	1.81
Cc1ccc(Cl)c(C)c1	3.83
CCCCCOc1ccccc1NC(=O)OCCN1CCOCC1	3.7
Cn1ccc(=O)cc1	-1.22
Clc1cccc(-c2c(Cl)c(Cl)cc(Cl)c2Cl)c1Cl	7.25
CN(CCCn1ccnc1C=NO)S(=O)(=O)C(F)(F)F	1.77
COC(=O)Cc1ccc(O)c2ncccc12	1.59
COC1CC(OC2CCC3(C=O)C4CCC5(C)C(C6=CC(=O)OC6)CCC5(O)C4CCC3(O)C2)OCC1O (stereo not drawn)	0.64
CCNC(=O)C1(O)C(C)CC2C3CCC4=CC(=O)C=CC4(C)C3(F)C(O)CC21C (stereo not drawn)	2.07
O=[N+]([O-])C=C1NCCN1c1ccc(Cl)nc1	-0.23
CC(C)CNCCCS(=O)(=O)c1ccc(S(N)(=O)=O)s1	-0.35
Clc1ccc(-c2c(Cl)ccc(Cl)c2Cl)c(Cl)c1Cl	7.04
COc1cccc(OCc2ccccc2CCCN2CCC(O)CC2)c1	3.35
COc1cc(S(C)=O)ccc1-c1nc2ccccc2[nH]1 (stereo not drawn)	2.15
CCCOc1ccc(NC(=O)OCCN2CCOCC2)cc1	2.78

Compound	logP
CC1COC(Cn2cncn2)(c2ccc(Oc3ccc(Cl)cc3)cc2Cl)O1 (stereo not drawn)	4.3
CCCCCCC(=O)OC(C(=O)NC1C(=O)N2C(C(=O)O)=C(C)CSC12)c1ccccc1 (stereo not drawn)	3.23
CCC1COC(Cn2cncn2)(c2ccc(NC(=O)NC)cc2)O1 (stereo not drawn)	0.62
NS(=O)(=O)c1cc(C(=O)O)cc(N2CCCC2)c1Oc1ccccc1	3.92
N#CCc1ccc(C(=O)O)cc1	1.18
CCCCOc1cccc(NC(=O)OCCN2CCOCC2)c1	3.62
COP(=O)(OC)O/C(C)=C/C(=O)OC(C)c1ccccc1 (stereo not drawn)	3.3
Clc1cc2c(cc1Cl)Oc1c(Cl)ccc(Cl)c1O2	6.39
O=[N+]([O-])C=C1NCCN1Cc1ccccc1	0.33
O=C(Cn1ccnc1[N+](=O)[O-])NCCCCO	-0.74
CCC(CC)C(=O)NS(=O)(=O)c1ccc(C(F)(F)F)cc1N	3.04
CN1C(C(=O)Nc2nccs2)=C(O)c2ccccc2S1(=O)=O	1.64
Cc1cc(NC(=O)C2=C(O)c3ccccc3S(=O)(=O)N2C)no1	2.83
CC(O)CNC(=O)C(F)(F)Cn1cnc([N+](=O)[O-])n1 (stereo not drawn)	-0.47
CC(CO)OC(C)CO (stereo not drawn)	-0.67
Cc1ncc([N+](=O)[O-])n1CCSC(=S)N(C)C	1.28
CCCOc1ccccc1NC(=O)OCCN1CCOCC1	2.78
Cn1nnnc1SCC1=C(C(=O)OCOC(=O)C(C)(C)C)N2C(=O)C(NC(=O)Cc3csc(N)n3)C2SC1 (stereo not drawn)	1.36
CCC(C)C(=O)OC1CCC=C2C=CC(C)C(CCC(O)CC(O)CC(=O)O)C21 (stereo not drawn)	3.6
C[Si](Cn1cncn1)(c1ccc(F)cc1)c1ccc(F)cc1	3.7
CC(C)(C)C(COc1ccc(S(C)(=O)=O)cc1)OC(=O)n1ccnc1 (stereo not drawn)	2.59

Compound	logP
CCOC(=O)C(C)Oc1ccc(Oc2cnc3cc(C)ccc3n2)cc1 (stereo not drawn)	4.11
N#CC(C#N)=NNc1ccccc1Br	3.11
CC12CCC(=O)C=C1CC(C#N)C1C2CCC2(C)C1CCC21CCC(=O)O1 (stereo not drawn)	1.67
O=[N+]([O-])C=C1NCCN1Cc1ccncc1	-1.05
CCN1C(=O)C(=O)c2c(cccc2[N+](=O)[O-])C1=O	0.82
Cc1cccc(C(=O)NN(C(=O)c2ccccc2Cl)C(C)(C)C)c1	3.11
COc1ccc(OCCO)cc1	1.13
CCN1C(=O)C(=O)c2cccc(OC)c2C1=O	0.94
CC(=O)NC(CC(C)C)C(=O)NC(Cc1ccccc1)C(=O)NC(CCCNC(=N)N)C(N)=O (stereo not drawn) (Ac-Leu-Phe-Arg-NH2; configuration not given here)	-0.12
COc1ccc2ccc(=O)oc2c1	1.74
NC(=Nc1ccccc1)NN=Cc1ccc2ccccc2n1	0.99
CCCCCCC(C)(C)c1ccc(C2CC(O)CC3CCC(O)CC32)c(O)c1 (stereo not drawn)	6.13
COc1cccc(C(=O)NP(=O)(N2CC2)N2CC2)c1	0.86
Brc1ccc(Br)c(-c2cc(Br)c(Br)cc2Br)c1	7.1
O=C(O)CCCCCCCc1ccccc1	4.09
COC1CC(OC2CCC3(C=O)C4CCC5(C)C(C6=CC(=O)OC6)CCC5(O)C4CCC3(O)C2)OCC1OC1CC(O)C(O)C(C)O1 (stereo not drawn)	-0.96
Cc1cc(Cl)ccc1Cl	3.97
Oc1c(I)cc(I)cc1I	4.5
Clc1cc(Cl)c2c(c1)Oc1c(cc(Cl)c(Cl)c1Cl)O2	6.53
CCCCc1ccc(C(=O)OCCN(C)C)cc1	4.06
CCCCCCCC(=O)OC(C(=O)NC1C(=O)N2C(C(=O)O)=C(C)CSC12)c1ccccc1 (stereo not drawn)	3.54
